Results published in patent US20110200531A1, “TREATMENT AND DIAGNOSIS OF CENTRAL NERVOUS SYSTEM DISORDERS” (THE REGENTS OF THE UNIVERSITY OF CALIFORNIA, priority 2009, published 2011).
“Also recorded” adds a separate entry of the source.

Tests used:
[1] = system: rat brains following kainate-induced seizures; assay: Neuronal degeneration in rat brains following kainate-induced seizures (H&E, TUNEL); assay type: in vivo, Sprague-Dawley rats; conditions: KA 10.5 mg/Kg s.c., TMP 50 mg/Kg s.c. 1 hr after onset of seizures
Method: One month-old Sprague-Dawley rats were subcutaneously (s.c.) administrated kainite (KA) (10.5 mg/Kg). 1 hr after the onset of seizures animals were given TMP (50 mg/Kg, s.c.) or equal volume of vehicle. All the animals were sacrificed 24 hr after TMP or vehicle injection under deep anesthesia. […] Scale bar=100 μm in b, d, e, g, i, j, 1, n and o; and 400 μm in a, c, f, h, k and m.

[2] = system: Primary neurons treated with Aβ1-42; assay: Neuronal survival in primary neuronal cultures treated with pre-aggregated Aβ1-42; assay type: cell-based, C57BL mice; conditions: 50 μM TMP with pre-aggregated Aβ1-42
Method: Primary neurons prepared from postnatal 1 day C57BL mice were treated with pre-aggregated Aβ1-42 combined with either 50 μM TMP or equal volume of vehicle at day 5 after plating. […] Nuclei were counterstained as blue by Hoechst 33342 (Hoec). Scale bar=100 μm in b & e; 80 μm a, d, f; 60 μm in c; and 40 μm in B.

3×Tg-AD mouse brain = assay: Brain pathology in 3×Tg-AD mice fed TMP-containing diet; assay type: in vivo
Method: (A) 16-month old triple-transgenic mice (3×Tg-AD, females) were fed with TMP containing (300 mg TMP/Kg diet) or nutrients-matched control diet made by BioSery (Frenchtown, N.J.) for 70 days. […] Animals were euthanized and perfused with PBS following behavioral analyses. Half the brain was fixed with 4% paraformaldehyde (PFA) in 1×PBS and sectioned using a microtome at 40 μm, while the other half-brain was dissected and rapidly frozen for biochemical analyses. […] The boxed areas in (a) is shown in (b) at higher magnification. […] The boxed areas in a & c are shown in b & d at higher magnification. Nuclei were stained as red by propidium iodide (PI). Scale bar=400 μm in A.a&c; 100 μm in B.a&c; 80 μm A.d&e, B.d; and 60 μm in A.b, B.b. (C) Glutathione (GSH) contents in the mouse brains were measured in the cortical lysates prepared from the 3×Tg AD mouse brains following TMP treatments or control using a Biovison Glutathione colorimetric detection kit. Lysates from age-matched untreated wild type mouse brains were used as controls (WT).
(§1) In these mice, the earliest pathological hallmark is the accumulation of intraneuronal Aβ in the hippocampus, cortex and amygdala in 4 month old 3×Tg-AD homozygous mice. […] Between 4-6 months of age 3×Tg-AD homozygous mice develop diffuse amyloid plaques in the neocortex. At 6 months the retention deficits are associated with significant impairments in spatial learning of the Morris Water Maze task. 16 Month old triple-transgenic female mice (3×Tg-AD) were fed TMP-containing (300 mg TMP/kg diet) or nutrients-matched control diet made by Biosery for 70 days. Brain and retina pathology was evaluated by immunohistochemistry with specific antibodies and learning and memory performance were scored using the Novel Object Recognition Task and using Morris Water Maze trials.

Thy1.2 promoter = assay: Luciferase-mediated Thy1.2 activity reporter in N2A cells; assay type: cell-based, mouse; conditions: TMP 50 μM, 24 hr
3×Tg-AD mice = assay: Learning and memory in 3×Tg AD mice (novel object recognition, Morris water maze); assay type: in vivo; conditions: 16-month old 3×Tg-AD females
Method: Both 16-month old 3×Tg-AD and background-matched wild type (WT) mice (females) were fed with TMPcontaining or nutrients matched control for 60 days as described in FIG. 3. (A) On day 61, all the mice were tested for object recognition as previously described. Briefly, mice (n=14 for each group) were habituated to a 60×30 cm container for 5 min. Two identical objects were placed in the bottom of the cage as mirror images of each other. The animal was trained for 5 min followed by a 5 min retention interval in the home cage. Then one of the objects in the test container was replaced with a novel object. During the 3-min probe trial, the mouse was placed in the cage and time spent investigating both objects was measured. A recognition index (R1) score is depicted as: (TimeN (in seconds for novel object)/TimeTotal (in seconds for both old and novel objects))×100. (B-D) Starting on day 62, all the mice were trained for 9 days on the Morris water maze (MWM) exactly as described for the behavior testing. […] (C) MWMprobe trial for number of platform location crosses, and (D) MWM probe trial for time spent in the target quadrant. As shown by the p values, (*) indicates significant improvement by TMP treatments with respect to the corresponding controls.
FIG. 21A-D: Improvement of learning and memory in aged 3×Tg AD mice by TMP treatment. Novel object recognition task was performed. A recognition index (R1) score is depicted as: [TimeN (in seconds for novel object)/TimeTotal (in seconds for both old and novel objects)]×100. B-D Starting on day 62, all the mice were trained for 9 days on the Morris water maze (MWM) for the behavior testing. […] (C) MWM probe trial for number of platform location crosses, and (D) MWM probe trial for time spent in the target quadrant. As shown by the p values, (*) indicates significant improvement by the compound treatments with respect to the corresponding controls.
as §1, with “TMP improves pathology in brains of 3×Tg-AD mice and results in increased memory and learning (See FIGS. 3, 4, and 10). In” for “In”, “16 Month old triple-transgenic female mice (3×Tg-AD) were fed TMP-containing (300 mg TMP/kg diet) or nutrients-matched control diet made by Biosery for 70 days.” left out
The ability of TMP-N to improve learning and memory in 3×Tg AD mice was assessed using novel object recognition task. […]

cells under stress = assay: Production of peroxides in cells under stress; assay type: cell-based
retinas of 3×Tg-AD mice = assay: Retinal pathology in 3×Tg-AD mice; assay type: in vivo
5×FAD mouse brains = assay: Abeta immunoreactivity (6E10) in 5×FAD mouse brains; assay type: in vivo, mice; conditions: chow containing 300 mg/Kg from postnatal day 61 for 4 months
Excerpt: Animal tissues were perfused with 1×PBS followed by overnight fixation in 4% paraformaldehyde in cold room. Vibrotome sections (˜50 μm thick) were immunostained with 6E10 antibody, which recognizes all forms of Abeta, and visualized by fluorescence microscopy.

## Cc1nc(C)c(C)nc1C [TMP, tetramethylpyrazine]
[1]; 24 hr
  Quantification of TUNEL-positive cells in the hippocampal regions: significant less number of damaged neurons
[1]; sacrificed 24 hr after
  neuronal damage/degeneration by H&E and TUNEL staining, hippocampal and piriform cortex regions: attenuates neuronal degeneration; also recorded: only exhibited a few sporadic pink (1) and TUNEL-positive cells
[2]
  mitochondrial depolarization (TMRM staining): very few cells
[2]; 24 hr
  neuronal survival / morphological changes showing neuronal degeneration (DIC microscopy): promotes neuronal survival; also recorded: not in these cells in the presence of TMP
3×Tg-AD mouse brain; 300 mg TMP/Kg diet, 70 days
  GFAP staining (astrocyte activation, astrogliosis) in brain: dramatically reduced Aβ accumulation and senile plaques as well as astrogliosis; also recorded: reduced intensity of GFAP staining
3×Tg-AD mouse brain; 300 mg TMP/Kg diet, 70 days, colorimetric kit
  Glutathione (GSH) contents in cortical lysates: significantly increase GSH contents
3×Tg-AD mouse brain; 300 mg TMP/Kg diet, about 40~50 mg/Kg daily per os, 70 days
  adverse effects on the health of animals: no adverse effects on the health of animals have been observed
3×Tg-AD mouse brain; 3×Tg AD mouse brains
  BACE-related APP cleavage and Aβ accumulation in brains: reduces BACE-related APP cleavage and Aβ accumulation
3×Tg-AD mouse brain; 16-month old females, 300 mg TMP/Kg diet, about 40~50 mg/Kg daily per os, 70 days, 50 mg/kg
  Aβ staining / Aβ accumulation and senile plaques in brain (immunohistochemistry): dramatically reduced Aβ accumulation and senile plaques; also recorded: markedly reduced levels of Aβ staining
Thy1.2 promoter
  Thy1.2 activity (luciferase-positive cells relative to all transfected cells): no influence of TMP on Thy1.2 activity
3×Tg-AD mice; TMP diet 60 days, trained 9 days from day 62
  Morris water maze (MWM) acquisition performance: significantly improved the performance of 3×Tg-AD mice
3×Tg-AD mice; TMP-containing diet
  learning and memory (object recognition, MWM probe trials): significant improvements in learning and memory; also recorded: improves learning and memory
Cells under stress
  production of peroxides: inhibits the production of peroxides
Retinas of 3×Tg-AD mice
  Astrocytic activation in the retinas: inhibited
  Aβ plaques in the retinas: significantly reduces the number if Aβ plaques
  fibril and oligomer conformations of Aβ: reduces both fibril and oligomer conformations of Aβ
  retinal pathologies associated with disease: beneficial effects
5×FAD mouse brains
  Abeta immunoreactivity / deposits in brain (6E10): reduction Abeta immunoreactivity
